Experimental data published in PubChem BioAssay (NCI).
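Exposure lasted 48 hours, with cells grown in 96-well plates and compounds tested at five concentrations. Definition used: TGI = concentration required for complete inhibition of growth.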

Columns and labels:
Assay in all cases: inhibition of tumour cell growth, NCI panel, 48 h
SNB-19 CNS = system: SNB-19 CNS
SNB-78 CNS = system: SNB-78 CNS
K-562 leukemia = system: K-562 leukemia
SN12C renal = system: SN12C renal
UACC-62 melanoma = system: UACC-62 melanoma
HOP-62 NSCLC = system: HOP-62 NSCLC
A498 renal = system: A498 renal
ACHN renal = system: ACHN renal
NCI-H522 lung = system: NCI-H522 lung
M14 melanoma = system: M14 melanoma
HCT-116 colon = system: HCT-116 colon
SF-295 CNS = system: SF-295 CNS
HOP-92 NSCLC = system: HOP-92 NSCLC
IGROV1 ovarian = system: IGROV1 ovarian
A549 NSCLC = system: A549 NSCLC
CCRF-CEM leukemia = system: CCRF-CEM leukemia
786-0 renal = system: 786-0 renal
T-47D breast = system: T-47D breast
MDA-MB-435 = system: MDA-MB-435
BT-549 breast = system: BT-549 breast

SMILES: CCCCCC/C=C1\CCC(CN2CCOCC2)C1=O (centres undefined)
- TGI (SNB-19 CNS): 38.9 µM
- TGI (SNB-78 CNS): 50.6 µM
- TGI (K-562 leukemia): 16.4 µM
- TGI (SN12C renal): 33.4 µM
- TGI (UACC-62 melanoma): 32.1 µM
- TGI (HOP-62 NSCLC): 32.8 µM
- TGI (A498 renal): 35.2 µM
- TGI (ACHN renal): 31.2 µM
- TGI (NCI-H522 lung): 19.4 µM
- TGI (M14 melanoma): 28.1 µM
- TGI (HCT-116 colon): 27.7 µM
- TGI (SF-295 CNS): 39.3 µM
- TGI (HOP-92 NSCLC): 34.7 µM
- TGI (IGROV1 ovarian): 36.6 µM
- TGI (A549 NSCLC): > 67.3 µM
- TGI (CCRF-CEM leukemia): > 25.4 µM
- TGI (786-0 renal): 8.75 µM

SMILES: C=C[C@]1(C)CCC2=C(CCC3C2(C)CCC[C@@]3(C)COC(C)=O)C1 (some centres undefined)
- TGI (SNB-19 CNS): 31.9 µM
- TGI (SNB-78 CNS): 36.4 µM
- TGI (K-562 leukemia): 33.5 µM
- TGI (SN12C renal): 31.4 µM
- TGI (UACC-62 melanoma): 45.8 µM
- TGI (HOP-62 NSCLC): 40.2 µM
- TGI (A498 renal): 54.3 µM
- TGI (ACHN renal): 38.7 µM
- TGI (NCI-H522 lung): 28.7 µM
- TGI (M14 melanoma): 40.3 µM
- TGI (HCT-116 colon): 30.9 µM
- TGI (SF-295 CNS): 32.5 µM
- TGI (HOP-92 NSCLC): 35 µM
- TGI (IGROV1 ovarian): 38.1 µM
- TGI (A549 NSCLC): 52.5 µM
- TGI (CCRF-CEM leukemia): 35.4 µM
- TGI (786-0 renal): 31.8 µM

SMILES: CCN(CC)Cc1c(/C=C\c2cc(OC)c(OC)c(OC)c2)ccc(OC)c1O
- TGI (T-47D breast): > 100 µM
- TGI (SNB-19 CNS): > 100 µM
- TGI (SNB-78 CNS): > 100 µM
- TGI (K-562 leukemia): > 100 µM
- TGI (MDA-MB-435): 0.826 µM
- TGI (SN12C renal): > 71.7 µM
- TGI (UACC-62 melanoma): 27.7 µM
- TGI (HOP-62 NSCLC): > 100 µM
- TGI (A498 renal): 17.4 µM
- TGI (ACHN renal): > 100 µM
- TGI (NCI-H522 lung): 6.22 µM
- TGI (M14 melanoma): > 59.1 µM
- TGI (HCT-116 colon): 42.7 µM
- TGI (SF-295 CNS): 32.1 µM
- TGI (HOP-92 NSCLC): > 100 µM
- TGI (BT-549 breast): > 82.2 µM
- TGI (IGROV1 ovarian): > 78.5 µM
- TGI (A549 NSCLC): > 100 µM
- TGI (CCRF-CEM leukemia): > 100 µM
- TGI (786-0 renal): 78.9 µM

SMILES: CCN(CC)CCNc1ccc2nnn3c4ccc(O)cc4c(=O)c1c23
- TGI (T-47D breast): 39.7 µM
- TGI (SNB-19 CNS): 22.2 µM
- TGI (SNB-78 CNS): 21.1 µM
- TGI (K-562 leukemia): 30.6 µM
- TGI (MDA-MB-435): 17.4 µM
- TGI (SN12C renal): 17.8 µM
- TGI (UACC-62 melanoma): 22.1 µM
- TGI (HOP-62 NSCLC): 14 µM
- TGI (A498 renal): 16 µM
- TGI (ACHN renal): 14.2 µM
- TGI (NCI-H522 lung): 20.9 µM
- TGI (M14 melanoma): 20.1 µM
- TGI (HCT-116 colon): 15.6 µM
- TGI (SF-295 CNS): 17.8 µM
- TGI (HOP-92 NSCLC): 18.2 µM
- TGI (BT-549 breast): 25.5 µM
- TGI (IGROV1 ovarian): 20.5 µM
- TGI (A549 NSCLC): 13.3 µM
- TGI (CCRF-CEM leukemia): 31.6 µM
- TGI (786-0 renal): 15.6 µM
